{
  "source": "patent US20200405666A9",
  "about": "“TREATMENT OF SYMPTOMS ASSOCIATED WITH FEMALE GASTROPARESIS” (priority 2011, published 2020)",
  "key": {"[1]": {"assay": "Plasma concentration of metoclopramide 30 minutes post-dose, Visit 3 (single dose) and Visit 7 (steady state)", "format": "in vivo, human", "conditions": "10 mg and 14 mg IN, Visit 3 and Visit 7, 30 minutes post-dose", "procedure": "Pharmacokinetic (PK) blood samples for the determination of metoclopramide concentration were obtained from all subjects on Visit 3, Day 0 (pre-dose and 30 minutes after dosing [single dose]) and at the Final Visit (Day 28) 30 minutes post-dose (steady state).\nPharmacokinetics: The pharmacokinetics (PK) of the study drug was evaluated in all subjects. FIG. 1 summarizes PK data (blood plasma concentration of metoclopramide in ng/mL) for both Treatment Arms (10 mg and 14 mg, intranasal) on visit 3 and visit 7. Individual data are represented by circles and the arithmetic mean and geometric mean of each group is represented by lines. (In each case, the upper line represents the arithmetic mean and the lower line represents the geometric mean.) In FIG. 2, the PK data are analyzed by gender."}, "[2]": {"assay": "Safety in the clinical study of metoclopramide nasal spray", "format": "in vivo, human", "conditions": "10 mg or 14 mg IN four times daily, four weeks", "procedure": "The objectives of this study were to evaluate the safety and the effectiveness of two doses of metoclopramide nasal spray solution, 10 mg and 14 mg, compared to placebo in reducing the symptoms of diabetic gastroparesis and to assess the plasma concentrations of two doses of metoclopramide nasal spray in subjects with diabetic gastroparesis following a single dose and at steady state. The aforementioned dosages for the treatment and control of gastroparesis were administered before meals and/or before bed time. Subjects who met the entry criteria after the Washout Period (Day −7 to Day −1) were randomized using an IVRS, to metoclopramide nasal spray 10 mg, 14 mg, or placebo, in roughly equal numbers (approximately 1:1:1) using a predetermined randomization schedule employing permuted blocks. Randomization was preformed centrally.\nThe study consisted of up to a 23-day Screening Period, a 7-day Washout Period (Day −7 to Day −1) followed by four weeks of study drug treatment. The total duration of each subject's participation was approximately 8 weeks, 287 subjects were enrolled in the study and were randomized to the following groups: Placebo (n=95), 10 mg intranasal (n=96) and 14 mg intranasal (n=96). Of those subjects enrolled, a total of 259 completed the study (˜90%)."}},
  "note": "“Also recorded” adds a separate entry of the source.",
  "data": [
    {"smiles": "CCN(CC)CCNC(=O)c1cc(Cl)c(N)cc1OC", "note": "[metoclopramide, -amino-5-chloro-N-(2-(diethylamino)ethyl)-2-methoxybenzamide]", "values": [
      {"measurement": "Difference in PK data (blood plasma concentration) between females and males", "setting": "[1]", "value": "no statistical difference; also recorded: not statistically significant"},
      {"measurement": "Dose-limiting toxicities", "setting": "[2]", "value": "no dose-limiting toxicities"},
      {"measurement": "Reports of tardive dyskinesia", "setting": "[2]", "value": "no reports of tardive dyskinesia"}
    ]}
  ]
}
